How the values were obtained:
[1] = test system: mTORC1 targets (4EBP1, rpS6); assay: Phosphorylation of mTORC1 targets in HCMV-infected fibroblasts (Western blot); type: cell-based, human; details: rapamycin 20 nM, Torin1 250 nM
[2] = test system: mTORC1 targets (4EBP1, rpS6); assay: Phosphorylation of mTORC1 targets in MCMV-infected MEFs (Western blot); type: cell-based, mouse; details: Torin1 250 nM; for 4EBP1 phosphorylation: MCMV
MCMV = MCMV replication in mouse embryo fibroblasts, TCID50; type: cell-based, murine cytomegalovirus; details: Torin1 250 nM
eIF4F complex = assay: Cap-binding (eIF4F) complex in MCMV-infected MEFs, m7G-Sepharose; type: cell-based, mouse; details: Torin1 250 nM, 48 hpi
Description: FIG. 7. […] At 6 days post infection the amount of MCMV in cell-free supernatants was determined by the TCID50 method. The error bars represent the standard errors of the means from three independent experiments, each performed in duplicate. […] At 48 hpi equal amounts of protein from cell lysates were incubated with m^7G-Sepharose. The presence of eIF4F complex components bound by the cap analog was determined by Western blotting. The results are representative of two independent experiments.

HCMV = assay: GFP marker expression from the HCMV genome (percentage of infected cells); type: cell-based, human cytomegalovirus; details: 24 hpi; 250 nM
Description: (§1) FIG. 2. […] Serum-starved confluent fibroblasts were infected with HCMV at a multiplicity of 3 PFU/cell. […] Control cultures received the vehicle in which Torin1 was dissolved (NT). At 2 hpi cells were harvested, and cell-associated viral DNA was quantified by real-time PCR analysis. Error bars represent the standard errors of the means from two independent experiments performed in duplicate. […] The level of IE1 was determined at 6 hpi by a Western blot assay using an IE1-specific monoclonal antibody. The image is representative of two independent experiments. […] The expression of a GFP marker gene present in the viral genome was monitored at 24 h after infection in the presence or absence of drug.

HCMV DNA = assay: HCMV viral DNA in infected fibroblasts by qPCR; type: cell-based, human cytomegalovirus
Description: as §1
FIG. 3. […] Cells were harvested at the indicated times, and the accumulation of the indicated proteins was analyzed by Western blotting. […] At the indicated times DNA was isolated, and viral DNA was quantified by qPCR. Equivalent amounts of DNA were analyzed for each sample, and the results are normalized to the level of actin DNA per sample. […] At the indicated times the amount of UL99 RNA was determined by qPCR, and the results are normalized to the amount of actin RNA in each sample. […]
Briefly, primary human fibroblasts were infected with BADinGFP at a multiplicity of 0.05 PFU/cell. […] For each sample, DNA was quantified by using a NanoDrop spectrophotometer (Thermo Scientific). […]

HSV-1 = HSV-1 replication in MEFs, TCID50; type: cell-based, herpes simplex virus type 1; details: 72 hpi
4EBP1 = 4EBP1 phosphorylation in HSV-1-infected MEFs (Western blot); type: cell-based, mouse; details: 8 hpi, 3 PFU/cell
Description: FIG. 8. Rapamycin-resistant mTOR activity is required for lytic replication by representative alpha- and gamma-herpesviruses. (A) Confluent serum-starved MEFs were infected at a multiplicity of 0.05 PFU/cell with HSV-1 or γHV68. The amount of virus in cell-free supernatants was determined by the TCID50 method at 72 hpi for HSV-1 (left) and at 6 days post infection for γHV68 (right). Black bars represent vehicle-treated samples (N) (DMSO), gray bars represent rapamycin-treated samples (R) (20 nM), and white bars represent Torin1-treated samples (T) (250 nM). The error bars represent the standard errors of the means from at least two independent experiments. (B) Confluent MEF monolayers were infected with HSV-1 at a multiplicity of 3 PFU/cell. Infected cell lysates were harvested at 8 hpi, and equal amounts of protein were analyzed by Western blotting. (C) WT or 4EBP1-null MEFs were infected with HSV-1 at a multiplicity of 0.05 PFU/cell. The amount of cell-free virus present in the supernatant at 72 hpi was quantified by the TCID50 method. The error bars represent the standard errors of the means from two independent experiments.

[3] = 48 hpi, rapamycin 20 nM, LY294002 20 μM

CCC(=O)N1CCN(c2ccc(-n3c(=O)ccc4cnc5ccc(-c6cnc7ccccc7c6)cc5c43)cc2C(F)(F)F)CC1 [Torin1]
phosphorylation of 4EBP1 during HCMV infection [1]: substantially blocked
induction of rpS6 phosphorylation during HCMV infection ([1]; 48 hpi): markedly inhibited
phosphorylation of 4EBP1 in MCMV-infected MEFs [2, 3]: inhibited
phosphorylation of rpS6 in MCMV-infected MEFs [2, 3]: completely inhibited
4EBP1 phosphorylation ([2]; Akt1/Akt2-null MEFs): inhibited
4EBP1 phosphorylation ([2]; Rictor-null MEFs): effectively inhibited
MCMV replication (MCMV; 4EBP1-null MEFs, rapamycin 20 nM, 6 days post infection): no longer capable of inhibiting
MCMV replication (MCMV; Akt1/Akt2-null MEFs): Torin-sensitive
MCMV replication (MCMV; Rictor-null MEFs, 6 days post infection): effectively inhibited
MCMV replication (MCMV; wild-type MEFs, rapamycin 20 nM, 0.05 PFU/cell): inhibited
formation of the eIF4F complex (eIF4F complex; 4EBP1-null cells): no such effect was observed
formation of the eIF4F complex (eIF4F complex; control cells): inhibited the formation
percentage of cells expressing GFP marker protein (HCMV): did not alter
level of cell-associated viral DNA (HCMV DNA; 2 hpi, 250 nM, pretreated 24 h or after adsorption, 3 PFU/cell): not influenced
reduction of viral DNA accumulation (HCMV DNA; 96 hpi, Torin1 250 nM, 0.05 PFU/cell): 150 fold
HSV-1 replication (HSV-1; MEFs, rapamycin 20 nM, Torin1 250 nM, 0.05 PFU/cell): inhibited
production of HSV-1 (HSV-1; cells lacking 4EBP1): failed to inhibit
phosphorylation of 4EBP1 during HSV-1 infection (4EBP1): inhibited
